{"source": "patent US20210267944A1", "about": "(BioXcel Therapeutics, Inc., priority 2018, published 2021)", "conditions": "for Respiration rate, Min / Systolic blood pressure, Max / Systolic blood pressure, Mean ± SD / Systolic blood pressure, Median / Systolic blood pressure, Min / Diastolic blood pressure Max / Diastolic blood pressure Mean ± SD / Diastolic blood pressure Median / Diastolic blood pressure Min / Pulse rate, Max / Pulse rate, Mean ± SD / Pulse rate, Median / Pulse rate, Min / Respiration rate, Max / Respiration rate, Mean ± SD / Respiration rate, Median: SDAT patients, IV infusion; for Subject stopping Criteria met (safety stoppage rule): subject 102", "procedure": "Study drug IV infusion was to be stopped at any time if any of the following occurred: • There was more than 20 mm Hg decrease in systolic or diastolic blood pressure. • There was an isolated drop in Systolic BP<100 mm of Hg. • There was an isolated drop Diastolic BP<60 mm of Hg. • There was a decrease in heart rate of 20 beats per minute or a drop below 50 beats per minute. • Attainment of a RASS of −1 at the end of each 30 minutes infusion period.\nReturn to baseline parameters was defined as BP falling within 15 mm of Hg of baseline reading prior to drug administration or HR falling within 10 beats per minute of baseline reading prior to drug administration.", "note": "Counter-ions that a name gives are not always drawn. Like-named read-outs stand apart in the source and are kept apart here.", "data": [{"smiles": "Cc1cccc([C@H](C)c2cnc[nH]2)c1C", "note": "[dexmedetomidine hydrochloride]", "values": [{"measurement": "Respiration rate, Min", "setting": "01:15 Hr", "result": 15, "unit": "breaths/min"}, {"measurement": "Systolic blood pressure, Max", "setting": "01:15 Hr", "result": "152 mm of Hg"}, {"measurement": "Systolic blood pressure, Mean ± SD", "setting": "01:15 Hr", "result": "135.6 ± 13.94 mm of Hg"}, {"measurement": "Systolic blood pressure, Median", "setting": "01:15 Hr", "result": "141.0 mm of Hg"}, {"measurement": "Systolic blood pressure, Min", "setting": "01:15 Hr", "result": "110 mm of Hg"}, {"measurement": "Diastolic blood pressure Max", "setting": "01:30 Hr", "result": "84 mm of Hg"}, {"measurement": "Diastolic blood pressure Mean ± SD", "setting": "01:30 Hr", "result": "70.6 ± 8.14 mm of Hg"}, {"measurement": "Diastolic blood pressure Median", "setting": "01:30 Hr", "result": "70.0 mm of Hg"}, {"measurement": "Diastolic blood pressure Min", "setting": "01:30 Hr", "result": "62 mm of Hg"}, {"measurement": "Pulse rate, Max", "setting": "01:30 Hr", "result": 94, "unit": "beats/min"}, {"measurement": "Pulse rate, Mean ± SD", "setting": "01:30 Hr", "result": "72.0 ± 14.66", "unit": "beats/min"}, {"measurement": "Pulse rate, Median", "setting": "01:30 Hr", "result": 71.0, "unit": "beats/min"}, {"measurement": "Pulse rate, Min", "setting": "01:30 Hr", "result": 52, "unit": "beats/min"}, {"measurement": "Respiration rate, Max", "setting": "01:30 Hr", "result": 25, "unit": "breaths/min"}, {"measurement": "Respiration rate, Mean ± SD", "setting": "01:30 Hr", "result": "18.6 ± 3.38", "unit": "breaths/min"}, {"measurement": "Respiration rate, Median", "setting": "01:30 Hr", "result": 19.0, "unit": "breaths/min"}, {"measurement": "Respiration rate, Min", "setting": "01:30 Hr", "result": 15, "unit": "breaths/min"}, {"measurement": "Systolic blood pressure, Max", "setting": "01:30 Hr", "result": "156 mm of Hg"}, {"measurement": "Systolic blood pressure, Mean ± SD", "setting": "01:30 Hr", "result": "130.9 ± 13.44 mm of Hg"}, {"measurement": "Systolic blood pressure, Median", "setting": "01:30 Hr", "result": "129.5 mm of Hg"}, {"measurement": "Systolic blood pressure, Min", "setting": "01:30 Hr", "result": "112 mm of Hg"}, {"measurement": "Diastolic blood pressure Max", "setting": "01:45 Hr", "result": "86 mm of Hg"}, {"measurement": "Diastolic blood pressure Mean ± SD", "setting": "01:45 Hr", "result": "69.5 ± 11.82 mm of Hg"}, {"measurement": "Diastolic blood pressure Median", "setting": "01:45 Hr", "result": "66.0 mm of Hg"}, {"measurement": "Diastolic blood pressure Min", "setting": "01:45 Hr", "result": "60 mm of Hg"}, {"measurement": "Pulse rate, Max", "setting": "01:45 Hr", "result": 100, "unit": "beats/min"}, {"measurement": "Pulse rate, Mean ± SD", "setting": "01:45 Hr", "result": "79.0 ± 14.23", "unit": "beats/min"}, {"measurement": "Pulse rate, Median", "setting": "01:45 Hr", "result": 79.0, "unit": "beats/min"}, {"measurement": "Pulse rate, Min", "setting": "01:45 Hr", "result": 61, "unit": "beats/min"}, {"measurement": "Respiration rate, Max", "setting": "01:45 Hr", "result": 23, "unit": "breaths/min"}, {"measurement": "Respiration rate, Mean ± SD", "setting": "01:45 Hr", "result": "18.6 ± 2.51", "unit": "breaths/min"}, {"measurement": "Respiration rate, Median", "setting": "01:45 Hr", "result": 18.0, "unit": "breaths/min"}, {"measurement": "Respiration rate, Min", "setting": "01:45 Hr", "result": 17, "unit": "breaths/min"}, {"measurement": "Systolic blood pressure, Max", "setting": "01:45 Hr", "result": "158 mm of Hg"}, {"measurement": "Systolic blood pressure, Mean ± SD", "setting": "01:45 Hr", "result": "131.3 ± 23.43 mm of Hg"}, {"measurement": "Systolic blood pressure, Median", "setting": "01:45 Hr", "result": "131.0 mm of Hg"}, {"measurement": "Systolic blood pressure, Min", "setting": "01:45 Hr", "result": "105 mm of Hg"}, {"measurement": "Diastolic blood pressure Max", "setting": "02:00 Hr", "result": "86 mm of Hg"}, {"measurement": "Diastolic blood pressure Mean ± SD", "setting": "02:00 Hr", "result": "78.7 ± 11.02 mm of Hg"}, {"measurement": "Diastolic blood pressure Median", "setting": "02:00 Hr", "result": "84.0 mm of Hg"}, {"measurement": "Diastolic blood pressure Min", "setting": "02:00 Hr", "result": "66 mm of Hg"}, {"measurement": "Pulse rate, Max", "setting": "02:00 Hr", "result": 94, "unit": "beats/min"}, {"measurement": "Pulse rate, Mean ± SD", "setting": "02:00 Hr", "result": "77.3 ± 20.82", "unit": "beats/min"}, {"measurement": "Pulse rate, Median", "setting": "02:00 Hr", "result": 84.0, "unit": "beats/min"}, {"measurement": "Pulse rate, Min", "setting": "02:00 Hr", "result": 54, "unit": "beats/min"}, {"measurement": "Respiration rate, Max", "setting": "02:00 Hr", "result": 20, "unit": "breaths/min"}, {"measurement": "Respiration rate, Mean ± SD", "setting": "02:00 Hr", "result": "18.3 ± 1.53", "unit": "breaths/min"}, {"measurement": "Respiration rate, Median", "setting": "02:00 Hr", "result": 18.0, "unit": "breaths/min"}, {"measurement": "Respiration rate, Min", "setting": "02:00 Hr", "result": 17, "unit": "breaths/min"}, {"measurement": "Systolic blood pressure, Max", "setting": "02:00 Hr", "result": "156 mm of Hg"}, {"measurement": "Systolic blood pressure, Mean ± SD", "setting": "02:00 Hr", "result": "143.3 ± 17.01 mm of Hg"}, {"measurement": "Systolic blood pressure, Median", "setting": "02:00 Hr", "result": "150.0 mm of Hg"}, {"measurement": "Systolic blood pressure, Min", "setting": "02:00 Hr", "result": "124 mm of Hg"}, {"measurement": "Diastolic blood pressure Max", "setting": "02:15 Hr", "result": "85 mm of Hg"}, {"measurement": "Diastolic blood pressure Mean ± SD", "setting": "02:15 Hr", "result": "69.7 ± 13.28 mm of Hg"}, {"measurement": "Diastolic blood pressure Median", "setting": "02:15 Hr", "result": "62.0 mm of Hg"}, {"measurement": "Diastolic blood pressure Min", "setting": "02:15 Hr", "result": "62 mm of Hg"}, {"measurement": "Pulse rate, Max", "setting": "02:15 Hr", "result": 94, "unit": "beats/min"}, {"measurement": "Pulse rate, Mean ± SD", "setting": "02:15 Hr", "result": "74.3 ± 21.13", "unit": "beats/min"}, {"measurement": "Pulse rate, Median", "setting": "02:15 Hr", "result": 77.0, "unit": "beats/min"}, {"measurement": "Pulse rate, Min", "setting": "02:15 Hr", "result": 52, "unit": "beats/min"}, {"measurement": "Respiration rate, Max", "setting": "02:15 Hr", "result": 20, "unit": "breaths/min"}, {"measurement": "Respiration rate, Mean ± SD", "setting": "02:15 Hr", "result": "19.3 ± 1.15", "unit": "breaths/min"}, {"measurement": "Respiration rate, Median", "setting": "02:15 Hr", "result": 20.0, "unit": "breaths/min"}, {"measurement": "Respiration rate, Min", "setting": "02:15 Hr", "result": 18, "unit": "breaths/min"}, {"measurement": "Systolic blood pressure, Max", "setting": "02:15 Hr", "result": "159 mm of Hg"}, {"measurement": "Systolic blood pressure, Mean ± SD", "setting": "02:15 Hr", "result": "142.7 ± 20.98 mm of Hg"}, {"measurement": "Systolic blood pressure, Median", "setting": "02:15 Hr", "result": "150.0 mm of Hg"}, {"measurement": "Systolic blood pressure, Min", "setting": "02:15 Hr", "result": "119 mm of Hg"}, {"measurement": "Diastolic blood pressure Max", "setting": "02:30 Hr", "result": "83 mm of Hg"}, {"measurement": "Diastolic blood pressure Mean ± SD", "setting": "02:30 Hr", "result": "76.5 ± 9.19 mm of Hg"}, {"measurement": "Diastolic blood pressure Median", "setting": "02:30 Hr", "result": "76.5 mm of Hg"}, {"measurement": "Diastolic blood pressure Min", "setting": "02:30 Hr", "result": "70 mm of Hg"}, {"measurement": "Pulse rate, Max", "setting": "02:30 Hr", "result": 96, "unit": "beats/min"}, {"measurement": "Pulse rate, Mean ± SD", "setting": "02:30 Hr", "result": "85.5 ± 14.85", "unit": "beats/min"}, {"measurement": "Pulse rate, Median", "setting": "02:30 Hr", "result": 85.5, "unit": "beats/min"}, {"measurement": "Pulse rate, Min", "setting": "02:30 Hr", "result": 75, "unit": "beats/min"}, {"measurement": "Respiration rate, Max", "setting": "02:30 Hr", "result": "20, 20 breaths/min"}, {"measurement": "Respiration rate, Mean ± SD", "setting": "02:30 Hr", "result": "20.0 ± 0.00", "unit": "breaths/min"}, {"measurement": "Respiration rate, Median", "setting": "02:30 Hr", "result": 20.0, "unit": "breaths/min"}, {"measurement": "Respiration rate, Min", "setting": "02:30 Hr", "result": "20, 20 breaths/min"}, {"measurement": "Systolic blood pressure, Max", "setting": "02:30 Hr", "result": "154 mm of Hg"}, {"measurement": "Systolic blood pressure, Mean ± SD", "setting": "02:30 Hr", "result": "153.0 ± 1.41 mm of Hg"}, {"measurement": "Systolic blood pressure, Median", "setting": "02:30 Hr", "result": "153.0 mm of Hg"}, {"measurement": "Systolic blood pressure, Min", "setting": "02:30 Hr", "result": "152 mm of Hg"}, {"measurement": "Diastolic blood pressure mean values, in words", "setting": "SDAT, during infusion", "result": "within clinically acceptable limits"}, {"measurement": "Pulse rate mean values, in words", "setting": "SDAT, during infusion", "result": "within clinically acceptable limits"}, {"measurement": "Respiration rate values, in words", "setting": "SDAT, during infusion", "result": "within clinically acceptable limits"}, {"measurement": "Systolic blood pressure mean values, in words", "setting": "SDAT, during infusion", "result": "within clinically acceptable limits"}, {"measurement": "Subject stopping Criteria met (safety stoppage rule)", "setting": "SDAT", "result": "only one subject's systolic BP reduced by more than 20 mm of Hg"}, {"measurement": "Subject stopping Criteria met (safety stoppage rule)", "setting": "SDAT, listed as Test", "result": "SBP >20 mm of Hg decrease"}, {"measurement": "time for systolic BP to return to baseline levels after infusion was stopped", "setting": "SDAT, the one subject with SBP decrease >20 mm of Hg", "result": "≤ 10", "unit": "min"}]}]}
